Experimental data: patent US20170368082A1, “FORMULATIONS OF BRINCIDOFOVIR” (priority 2016, published 2017)

Assay: Mass balance (excretion of total radioactivity) after 2-h IV infusion of [^14C]brincidofovir
Assay type: in vivo, male Sprague Dawley rats
Method: All animals were obtained from Hilltop Lab Animals, Inc. (Scottdale, Pa.). Rats weighed between 214 and 265 g at dosing. […] Three dosing formulations (one for high dose IV, one for low dose IV, and one for PO dose) were prepared at QPS on the day of dosing. […] The IV dose formulation for Group 5 and the PO dose formulation for Groups 6 and 7 contained higher concentration of buffer so that the final buffer concentration was approximately 10 mM in all dose formulations. […] Urine samples were collected from each animal into pre-labeled urine collection tubes at pre-dose (overnight) and at intervals of 0-8 h, 8-24 h, and at every subsequent 24 h interval until 168 h post-dose. All urine specimens were collected over dry ice. The total weight of each urine collection was documented, and the samples were stored frozen at approximately −70° C. until LSC analysis. Samples were maintained at approximately −70° C. following analysis, and were saved for further analysis, to be conducted under a separate protocol. Feces samples were collected from each animal into a pre-labeled feces collection tube at pre-dose (overnight) and at 24 h intervals post-dose until 168 h post-dose. Feces specimens were collected over dry ice and the total weight of each feces sample was documented. Feces samples were stored at approximately −70° C. until homogenization and LSC analysis, were maintained at approximately −70° C. following analysis, and were saved for further analysis, to be conducted under a separate protocol. Feces were homogenized and analyzed for total radioactivity content. […] The actual weights of the individual aliquots and the amount of solvent used in homogenization were recorded. Pre-weighed portions of each feces homogenate were placed into a CombustoCone® that contained a CombustoPad®, allowed to dry over-night in a fume hood, and were burned completely in the sample oxidizer. […] Volumes or weights of sample aliquots were documented in the study records.

SMILES: CCCCCCCCCCCCCCCCOCCCOP(=O)(O)CO[C@H](CO)Cn1ccc(N)nc1=O [[^14C]brincidofovir]
- Radioactivity recovered in feces (15 mg/kg 2-h IV, 168 h): 42.2 % of administered dose
- Radioactivity recovered in urine (15 mg/kg 2-h IV, 168 h): 51.2 % of administered dose
- Total recovery in urine and feces combined (168 h): 93.5 % of the dose
- Percent Recovery of total radioactivity (Feces 0-24 h, Mean, 15 mg/kg IV): 36.7 % Dose
- Percent Recovery of total radioactivity (Feces 0-24 h, Rat 01, 15 mg/kg IV): 37.3 % Dose
- Percent Recovery of total radioactivity (Feces 0-24 h, Rat 02, 15 mg/kg IV): 37.6 % Dose
- Percent Recovery of total radioactivity (Feces 0-24 h, Rat 03, 15 mg/kg IV): 35.1 % Dose
- Percent Recovery of total radioactivity (Feces 24-48 h, Mean, 15 mg/kg IV): 3.8 % Dose
- Percent Recovery of total radioactivity (Feces 24-48 h, Rat 01, 15 mg/kg IV): 3.4 % Dose
- Percent Recovery of total radioactivity (Feces 24-48 h, Rat 02, 15 mg/kg IV): 4.6 % Dose
- Percent Recovery of total radioactivity (Feces 24-48 h, Rat 03, 15 mg/kg IV): 3.5 % Dose
- Percent Recovery of total radioactivity (Feces 48-72 h, Mean, 15 mg/kg IV): 0.9 % Dose
- Percent Recovery of total radioactivity (Feces 48-72 h, Rat 01, 15 mg/kg IV): 0.9 % Dose
- Percent Recovery of total radioactivity (Feces 48-72 h, Rat 02, 15 mg/kg IV): 1.0 % Dose
- Percent Recovery of total radioactivity (Feces 48-72 h, Rat 03, 15 mg/kg IV): 0.8 % Dose
- Percent Recovery of total radioactivity (Feces 72-96 h, Mean, 15 mg/kg IV): 0.4 % Dose
- Percent Recovery of total radioactivity (Feces 72-96 h, Rat 01, 15 mg/kg IV): 0.4 % Dose
- Percent Recovery of total radioactivity (Feces 72-96 h, Rat 02, 15 mg/kg IV): 0.4 % Dose
- Percent Recovery of total radioactivity (Feces 72-96 h, Rat 03, 15 mg/kg IV): 0.4 % Dose
- Percent Recovery of total radioactivity (Feces 96-120 h, Mean, 15 mg/kg IV): 0.2 % Dose
- Percent Recovery of total radioactivity (Feces 96-120 h, Rat 01, 15 mg/kg IV): 0.2 % Dose
- Percent Recovery of total radioactivity (Feces 96-120 h, Rat 02, 15 mg/kg IV): 0.2 % Dose
- Percent Recovery of total radioactivity (Feces 96-120 h, Rat 03, 15 mg/kg IV): 0.2 % Dose
- Percent Recovery of total radioactivity (Feces 120-144 h, Mean, 15 mg/kg IV): 0.1 % Dose
- Percent Recovery of total radioactivity (Feces 120-144 h, Rat 01, 15 mg/kg IV): 0.1 % Dose
- Percent Recovery of total radioactivity (Feces 120-144 h, Rat 02, 15 mg/kg IV): 0.1 % Dose
- Percent Recovery of total radioactivity (Feces 120-144 h, Rat 03, 15 mg/kg IV): 0.1 % Dose
- Percent Recovery of total radioactivity (Feces 144-168 h, Mean, 15 mg/kg IV): 0.1 % Dose
- Percent Recovery of total radioactivity (Feces 144-168 h, Rat 01, 15 mg/kg IV): 0.1 % Dose
- Percent Recovery of total radioactivity (Feces 144-168 h, Rat 02, 15 mg/kg IV): 0.1 % Dose
- Percent Recovery of total radioactivity (Feces 144-168 h, Rat 03, 15 mg/kg IV): 0.1 % Dose
- Percent Recovery of total radioactivity (Feces Subtotal (0-168 h), Mean, 15 mg/kg IV): 42.2 % Dose
- Percent Recovery of total radioactivity (Feces Subtotal (0-168 h), Rat 01, 15 mg/kg IV): 42.4 % Dose
- Percent Recovery of total radioactivity (Feces Subtotal (0-168 h), Rat 02, 15 mg/kg IV): 44.2 % Dose
- Percent Recovery of total radioactivity (Feces Subtotal (0-168 h), Rat 03, 15 mg/kg IV): 40.2 % Dose
- Percent Recovery of total radioactivity (Total urine + feces (0-168 h), Mean, 15 mg/kg IV): 93.5 % Dose
- Percent Recovery of total radioactivity (Total urine + feces (0-168 h), Rat 01, 15 mg/kg IV): 93.6 % Dose
- Percent Recovery of total radioactivity (Total urine + feces (0-168 h), Rat 02, 15 mg/kg IV): 91.6 % Dose
- Percent Recovery of total radioactivity (Total urine + feces (0-168 h), Rat 03, 15 mg/kg IV): 95.2 % Dose
- Percent Recovery of total radioactivity (Urine 0-8 h, Mean, 15 mg/kg IV): 31.0 % Dose
- Percent Recovery of total radioactivity (Urine 0-8 h, Rat 01, 15 mg/kg IV): 33.0 % Dose
- Percent Recovery of total radioactivity (Urine 0-8 h, Rat 02, 15 mg/kg IV): 29.3 % Dose
- Percent Recovery of total radioactivity (Urine 0-8 h, Rat 03, 15 mg/kg IV): 30.7 % Dose
- Percent Recovery of total radioactivity (Urine 8-24 h, Mean, 15 mg/kg IV): 12.8 % Dose
- Percent Recovery of total radioactivity (Urine 8-24 h, Rat 01, 15 mg/kg IV): 10.7 % Dose
- Percent Recovery of total radioactivity (Urine 8-24 h, Rat 02, 15 mg/kg IV): 11.5 % Dose
- Percent Recovery of total radioactivity (Urine 8-24 h, Rat 03, 15 mg/kg IV): 16.2 % Dose
- Percent Recovery of total radioactivity (Urine 24-48 h, Mean, 15 mg/kg IV): 4.1 % Dose
- Percent Recovery of total radioactivity (Urine 24-48 h, Rat 01, 15 mg/kg IV): 4.3 % Dose
- Percent Recovery of total radioactivity (Urine 24-48 h, Rat 02, 15 mg/kg IV): 3.6 % Dose
- Percent Recovery of total radioactivity (Urine 24-48 h, Rat 03, 15 mg/kg IV): 4.5 % Dose
- Percent Recovery of total radioactivity (Urine 48-72 h, Mean, 15 mg/kg IV): 1.7 % Dose
- Percent Recovery of total radioactivity (Urine 48-72 h, Rat 01, 15 mg/kg IV): 1.6 % Dose
- Percent Recovery of total radioactivity (Urine 48-72 h, Rat 02, 15 mg/kg IV): 1.6 % Dose
- Percent Recovery of total radioactivity (Urine 48-72 h, Rat 03, 15 mg/kg IV): 1.9 % Dose
- Percent Recovery of total radioactivity (Urine 72-96 h, Mean, 15 mg/kg IV): 0.8 % Dose
- Percent Recovery of total radioactivity (Urine 72-96 h, Rat 01, 15 mg/kg IV): 0.8 % Dose
- Percent Recovery of total radioactivity (Urine 72-96 h, Rat 02, 15 mg/kg IV): 0.8 % Dose
- Percent Recovery of total radioactivity (Urine 72-96 h, Rat 03, 15 mg/kg IV): 0.8 % Dose
- Percent Recovery of total radioactivity (Urine 96-120 h, Mean, 15 mg/kg IV): 0.4 % Dose
- Percent Recovery of total radioactivity (Urine 96-120 h, Rat 01, 15 mg/kg IV): 0.4 % Dose
- Percent Recovery of total radioactivity (Urine 96-120 h, Rat 02, 15 mg/kg IV): 0.3 % Dose
- Percent Recovery of total radioactivity (Urine 96-120 h, Rat 03, 15 mg/kg IV): 0.5 % Dose
- Percent Recovery of total radioactivity (Urine 120-144 h, Mean, 15 mg/kg IV): 0.2 % Dose
- Percent Recovery of total radioactivity (Urine 120-144 h, Rat 01, 15 mg/kg IV): 0.2 % Dose
- Percent Recovery of total radioactivity (Urine 120-144 h, Rat 02, 15 mg/kg IV): 0.2 % Dose
- Percent Recovery of total radioactivity (Urine 120-144 h, Rat 03, 15 mg/kg IV): 0.3 % Dose
- Percent Recovery of total radioactivity (Urine 144-168 h, Mean, 15 mg/kg IV): 0.2 % Dose
- Percent Recovery of total radioactivity (Urine 144-168 h, Rat 01, 15 mg/kg IV): 0.2 % Dose
- Percent Recovery of total radioactivity (Urine 144-168 h, Rat 02, 15 mg/kg IV): 0.1 % Dose
- Percent Recovery of total radioactivity (Urine 144-168 h, Rat 03, 15 mg/kg IV): 0.2 % Dose
- Percent Recovery of total radioactivity (Urine Subtotal (0-168 h), Mean, 15 mg/kg IV): 51.2 % Dose
- Percent Recovery of total radioactivity (Urine Subtotal (0-168 h), Rat 01, 15 mg/kg IV): 51.2 % Dose
- Percent Recovery of total radioactivity (Urine Subtotal (0-168 h), Rat 02, 15 mg/kg IV): 47.5 % Dose
- Percent Recovery of total radioactivity (Urine Subtotal (0-168 h), Rat 03, 15 mg/kg IV): 55.1 % Dose
- Fecal excretion in first 24 h (rat, in vivo): 36.7 % of the dose
- Fecal excretion in first 24 h, share of radioactivity excreted in feces (rat, in vivo): 87%
- Share of urinary and fecal excretion in first 24 h (rat, in vivo): ~86%
- Urinary excretion in first 24 h (rat, in vivo): 43.8 % of the dose
- Urinary excretion in first 24 h, share of radioactivity excreted in urine (rat, in vivo): 86%
